The values below come from patent US8466112B2, “Compositions comprising Ornithine Ketoglutarate (OKG)” (Cutech S.r.l., priority 2007, dated 2013).

In assay [1] the test system is hair follicles. Nature of the assay: Relative growth of hair follicles compared to control, OKG versus Ornithine and alpha-Ketoglutarate. The assay is classed as cell-based, human. The note with it: for Growth of hair follicles - elongation ± standard error, relative to control (100): after 6 days of cultivation. The procedure:
(§1) Human anagen hair follicles were isolated from scalp skin and transferred for cultivation in sterile 24 well plates using a modified Williams' Medium E. Cultivation took place for nine days, while the experimental treatment of the follicles started 24 hours from the beginning of the cultivation.
(§2) Hair follicles taken from a single donor were selected for the experiments after 18 h of cultivation. Only those follicles showing a good vital stage and a growth of not less than 0.2 mm have been considered suitable to be maintained in culture. 4 groups were prepared comprising 9 follicles, plated at the density of 3 hair follicles/plate. […] The growth of the hair follicles was studied by microphotography and subsequently determined by image analysis. All the hair follicles were photographed every two days.
In order to show the superiority of OKG compared to Ornithine on one hand and alpha-Ketoglutarate on the other, the influence of these compounds on the metabolism of hair follicles was studied under the conditions as explained in Examples 1 and 2. […] Examples 3 and 4 are according to the invention, examples C1-C4 are shown for comparison.

Assay [2] relates to Human anagen hair follicles. Nature of the assay: Growth (elongation) of cultivated human hair follicles. It counts as cell-based. The procedure: as §1, §2
In assay [3] the test system is hair follicles. The assay can be described thus: Histological analysis of hair follicles (anagen/catagen phase). It counts as cell-based, human. The note with it: after 9 days of cultivation. The text has this:
The experiment according to Examples 1 and 2 was terminated after 9 days of cultivation. Subsequently, the hair follicles were subjected to a histological analysis by colouring with haematossilin and eosin in order to verify the morphological state of the dermopapilla.

Assay [4] relates to cells in the dermopapilla. Nature of the assay: Number of proliferative (Ki-67) and apoptotic (Apoptag) cells in the dermopapilla. The note with it: after three days of cultivation. It counts as cell-based, human. The procedure: After three days of cultivation samples were taken in order to determine the relative number of cells being in the proliferative or apoptotic state. The cells in apoptotic state were determined using an Apoptag Fluorescein In-situ Apoptosis Detection Kit (Chemicon International cod. S7110), while those in proliferative state were marked with the antibody Ki-67 (monoclonal mouse anti-human Ki-67, clone MIB1, Dako Cytomation cod. M7240). The total number of cells in the dermopapilla was analysed by marking their nuclei by means of DAPI (4′, 6-diamidino-2-phenylindol dihydrochloride). The percentage of cells in the proliferative or apoptotic stage compared to the total number of cells was determined again by image analysis.

In the next assay the test system is A 549 cells. The conditions noted are these: disclosed in WO 06/075924 A1; cited from earlier work.

Take `NCCC[C@H](N)C(=O)O` [Ornithine]: the “Growth of hair follicles - elongation ± standard error, relative to control (100)” value with hair follicles [1] (Conc. 0.001% b.w.) stood at 105.1 ± 5.1%; with hair follicles [1] (Conc. 0.01% b.w.), 102.1 ± 5.0%.

Turning to `O=C(O)CCC(=O)C(=O)O` [alpha-Ketoglutarate], the “Growth of hair follicles - elongation ± standard error, relative to control (100)” value turned out to be 103.1 ± 3.1% in the assay on hair follicles [1] (Conc. 0.001% b.w.) and 103.8 ± 3.8% in the assay on hair follicles [1] (Conc. 0.01% b.w.).

In the case of Ornithine Ketoglutarate [OKG], the “Growth of hair follicles - elongation ± standard error” value turned out to be 0 mm in assay [2] (OKG 0.005% b.w. in cultivation medium, day 1 of cultivation); 0.84 ± 0.022 mm in assay [2] (OKG 0.005% b.w. in cultivation medium, day 3 of cultivation); 1.50 ± 0.078 mm in assay [2] (OKG 0.005% b.w. in cultivation medium, day 5 of cultivation); 1.98 ± 0.155 mm in assay [2] (OKG 0.005% b.w. in cultivation medium, day 7 of cultivation); 2.35 ± 0.253 mm in assay [2] (OKG 0.005% b.w. in cultivation medium, day 9 of cultivation); 0 mm in assay [2] (OKG 0.01% b.w. in cultivation medium, day 1 of cultivation). For the same compound, the “Growth of hair follicles - elongation ± standard error” value came to 0.88 ± 0.024 mm in assay [2] (OKG 0.01% b.w. in cultivation medium, day 3 of cultivation); 1.63 ± 0.067 mm in assay [2] (OKG 0.01% b.w. in cultivation medium, day 5 of cultivation); 2.25 ± 0.086 mm in assay [2] (OKG 0.01% b.w. in cultivation medium, day 7 of cultivation); 2.77 ± 0.163 mm in assay [2] (OKG 0.01% b.w. in cultivation medium, day 9 of cultivation). Moreover, the “Effect on growth of the hair follicles (in words)” value in assay [2] (addition of OKG 0.005 to 0.01% b.w. versus control) is listed as “significant increase in growth of the hair follicles”. For the same compound, the “Hair follicle stimulation compared to Ornithine and alpha-Ketoglutarate taken alone (in words)” value in the assay with hair follicles [1] (0.001 and 0.01% b.w., 6 days) was “superiority and synergistic effect”. The results for the “Growth of hair follicles - elongation ± standard error, relative to control (100)” value in the assay on hair follicles [1] (Conc. 0.001% b.w.) and in the assay on hair follicles [1] (Conc. 0.01% b.w.) were 112.7 ± 3.1% and 110.4 ± 4.0%, respectively. The “Hair follicles in Catagen phase” value in the assay on hair follicles [3] (OKG 0.1% b.w., control 44%) was 22%. The “Hair follicles in Anagen phase” value with hair follicles [3] (OKG 0.1% b.w., control 56%) is recorded as 78%. Also, in the assay on hair follicles [3], the “Effect on decline to the catagen phase (in words)” value was “significantly delayed the decline to the catagen phase”. Moreover, the “Number of cells in Apoptotic stage ± standard error (of total cells)” value in assay [4] (OKG 0.1% b.w., control 0.48%) is on record as 0.17% ± 0.073. For the same compound, in assay [4] (OKG 0.1% b.w., control 10.74%), the “Number of cells in Proliferative stage ± standard error (of total cells)” value is 10.51% ± 0.17. Also, in assay [4], the “Effect on number of apoptotic cells (in words)” value is listed as “significantly reduces the number of apoptotic cells”. The “Effect on proliferation of A 549 cells (in words)” value in the assay with A 549 cells was “stimulate the proliferation of A 549 cells”.
